Laboratory results from patent US7118895B2, “Process for producing aglycon by using diglycosidase and flavor-improved food containing the aglycon and converting agent to be used in the process” (Amano Enzyme Inc., priority 2000, dated 2006).

System: Crude diglycosidase
Assay: Examination of pH in the conversion into isoflavone aglycons by diglycosidase using soybean materials
Assay type: biochemical, Penicillium multicolor IAM7153
Design: Decomposition efficiency of genistin family in soymilk / Decomposition efficiency of genistin family in defatted soybean / Decomposition efficiency of daidzin family in defatted soybean: concentration or dose not given beside the values
Settings: for Decomposition efficiency of daidzin family in roasted soy flour: 55° C.
Method: A substrate solution of 450 μL was prepared by suspending 50 mg of each soybean material (roasted soy flour (manufactured by Fuji Shokuryo K.K.), soymilk (manufactured by Gitoh Shokuhin K.K.), defatted soybean (manufactured by Fuji Seiyu K.K.), concentrated soybean protein (manufactured by Fuji Seiyu K.K.)), and adjusting the pH to 2 to 11 with hydrochloric acid or sodium hydroxide. Each enzyme solution of pH 2–11 wherein diglycosidase activity of crude diglycosidase was adjusted to 1.88 AU/mL was added thereto in an amount of 50 μL and the whole was reacted at 55° C. at the total volume of 500 μL. To the reaction mixture was added 700 μL of ethanol after 0, 1, 3, and 6 hours of the reaction. After stirring and ultrasonication, the mixture was subjected to centrifugal separation at 15,000 rpm and 4° C. for 10 minutes. The supernatant was filtered through a filter and the existence of isoflavone glycosides and aglycon isoflavones contained in the reaction mixture was detected by HLPC (Tables 15 to 26).

[1] = pH4.8, heat treatment of enzyme: no, reaction time 0 h
[2] = pH4.8, heat treatment of enzyme: no, reaction time 1 h
[3] = pH4.8, heat treatment of enzyme: no, reaction time 3 h
[4] = pH4.8, heat treatment of enzyme: no, reaction time 6 h
[5] = pH4.8, heat treatment of enzyme: yes, reaction time 6 h

SMILES: CC(=O)OC[C@H]1O[C@@H](Oc2ccc3c(=O)c(-c4ccc(O)cc4)coc3c2)[C@H](O)[C@@H](O)[C@@H]1O [acetyldaidzin, 6″-O-acetyldaidzin]
- Decomposition efficiency of daidzin family in concentrated soybean protein (pH1.6, heat treatment of enzyme: no, reaction time 0 h): 44.5%
- Decomposition efficiency of daidzin family in concentrated soybean protein (pH1.6, heat treatment of enzyme: no, reaction time 1 h): 43.7%
- Decomposition efficiency of daidzin family in concentrated soybean protein (pH1.6, heat treatment of enzyme: no, reaction time 3 h): 41.7%
- Decomposition efficiency of daidzin family in concentrated soybean protein (pH1.6, heat treatment of enzyme: no, reaction time 6 h): 39.4%
- Decomposition efficiency of daidzin family in concentrated soybean protein (pH1.6, heat treatment of enzyme: yes, reaction time 6 h): 38.1%
- Decomposition efficiency of daidzin family in roasted soy flour (pH2, heat treatment of enzyme no, reaction time 0 h): 47.4
- Decomposition efficiency of daidzin family in roasted soy flour (pH2, heat treatment of enzyme no, reaction time 1 h): 46.9
- Decomposition efficiency of daidzin family in roasted soy flour (pH2, heat treatment of enzyme no, reaction time 3 h): 45.0
- Decomposition efficiency of daidzin family in roasted soy flour (pH2, heat treatment of enzyme no, reaction time 6 h): 42.4
- Decomposition efficiency of daidzin family in roasted soy flour (pH2, heat treatment of enzyme yes, reaction time 6 h): 42.4
- Decomposition efficiency of daidzin family in soymilk (pH2.3, heat treatment of enzyme: no, reaction time 0 h): not detected
- Decomposition efficiency of daidzin family in soymilk (pH2.3, heat treatment of enzyme: no, reaction time 1 h): not detected
- Decomposition efficiency of daidzin family in soymilk (pH2.3, heat treatment of enzyme: no, reaction time 3 h): not detected
- Decomposition efficiency of daidzin family in soymilk (pH2.3, heat treatment of enzyme: no, reaction time 6 h): not detected
- Decomposition efficiency of daidzin family in soymilk (pH2.3, heat treatment of enzyme: yes, reaction time 6 h): not detected
- Decomposition efficiency of daidzin family in defatted soybean (pH2.6, heat treatment of enzyme: no, reaction time 0 h): not detected
- Decomposition efficiency of daidzin family in defatted soybean (pH2.6, heat treatment of enzyme: no, reaction time 1 h): not detected
- Decomposition efficiency of daidzin family in defatted soybean (pH2.6, heat treatment of enzyme: no, reaction time 3 h): not detected
- Decomposition efficiency of daidzin family in defatted soybean (pH2.6, heat treatment of enzyme: no, reaction time 6 h): not detected
- Decomposition efficiency of daidzin family in defatted soybean (pH2.6, heat treatment of enzyme: yes, reaction time 6 h): not detected
- Decomposition efficiency of daidzin family in concentrated soybean protein (pH2.7, heat treatment of enzyme: no, reaction time 0 h): 44.5%
- Decomposition efficiency of daidzin family in concentrated soybean protein (pH2.7, heat treatment of enzyme: no, reaction time 1 h): 46.4%
- Decomposition efficiency of daidzin family in concentrated soybean protein (pH2.7, heat treatment of enzyme: no, reaction time 3 h): 46.0%
- Decomposition efficiency of daidzin family in concentrated soybean protein (pH2.7, heat treatment of enzyme: no, reaction time 6 h): 45.8%
- Decomposition efficiency of daidzin family in concentrated soybean protein (pH2.7, heat treatment of enzyme: yes, reaction time 6 h): 43.9%
- Decomposition efficiency of daidzin family in roasted soy flour (pH3, heat treatment of enzyme no, reaction time 0 h): 47.4
- Decomposition efficiency of daidzin family in roasted soy flour (pH3, heat treatment of enzyme no, reaction time 1 h): 46.0
- Decomposition efficiency of daidzin family in roasted soy flour (pH3, heat treatment of enzyme no, reaction time 3 h): 39.6
- Decomposition efficiency of daidzin family in roasted soy flour (pH3, heat treatment of enzyme no, reaction time 6 h): 40.7
- Decomposition efficiency of daidzin family in roasted soy flour (pH3, heat treatment of enzyme yes, reaction time 6 h): 47.4
- Decomposition efficiency of daidzin family in defatted soybean (pH3.4, heat treatment of enzyme: no, reaction time 0 h): not detected
- Decomposition efficiency of daidzin family in defatted soybean (pH3.4, heat treatment of enzyme: no, reaction time 1 h): not detected
- Decomposition efficiency of daidzin family in defatted soybean (pH3.4, heat treatment of enzyme: no, reaction time 3 h): not detected
- Decomposition efficiency of daidzin family in defatted soybean (pH3.4, heat treatment of enzyme: no, reaction time 6 h): not detected
- Decomposition efficiency of daidzin family in defatted soybean (pH3.4, heat treatment of enzyme: yes, reaction time 6 h): not detected
- Decomposition efficiency of daidzin family in soymilk (pH3.5, heat treatment of enzyme: no, reaction time 0 h): not detected
- Decomposition efficiency of daidzin family in soymilk (pH3.5, heat treatment of enzyme: no, reaction time 1 h): not detected
- Decomposition efficiency of daidzin family in soymilk (pH3.5, heat treatment of enzyme: no, reaction time 3 h): not detected
- Decomposition efficiency of daidzin family in soymilk (pH3.5, heat treatment of enzyme: no, reaction time 6 h): not detected
- Decomposition efficiency of daidzin family in soymilk (pH3.5, heat treatment of enzyme: yes, reaction time 6 h): not detected
- Decomposition efficiency of daidzin family in concentrated soybean protein (pH3.7, heat treatment of enzyme: no, reaction time 0 h): 44.6%
- Decomposition efficiency of daidzin family in concentrated soybean protein (pH3.7, heat treatment of enzyme: no, reaction time 1 h): 41.6%
- Decomposition efficiency of daidzin family in concentrated soybean protein (pH3.7, heat treatment of enzyme: no, reaction time 3 h): 33.0%
- Decomposition efficiency of daidzin family in concentrated soybean protein (pH3.7, heat treatment of enzyme: no, reaction time 6 h): 25.2%
- Decomposition efficiency of daidzin family in concentrated soybean protein (pH3.7, heat treatment of enzyme: yes, reaction time 6 h): 44.4%
- Decomposition efficiency of daidzin family in roasted soy flour (pH4, heat treatment of enzyme no, reaction time 0 h): 47.7
- Decomposition efficiency of daidzin family in roasted soy flour (pH4, heat treatment of enzyme no, reaction time 1 h): 34.4
- Decomposition efficiency of daidzin family in roasted soy flour (pH4, heat treatment of enzyme no, reaction time 3 h): 20.5
- Decomposition efficiency of daidzin family in roasted soy flour (pH4, heat treatment of enzyme no, reaction time 6 h): 11.1
- Decomposition efficiency of daidzin family in roasted soy flour (pH4, heat treatment of enzyme yes, reaction time 6 h): 47.9
- Decomposition efficiency of daidzin family in defatted soybean [1]: not detected
- Decomposition efficiency of daidzin family in soymilk [1]: not detected
- Decomposition efficiency of daidzin family in defatted soybean [2]: not detected
- Decomposition efficiency of daidzin family in soymilk [2]: not detected
- Decomposition efficiency of daidzin family in defatted soybean [3]: not detected
- Decomposition efficiency of daidzin family in soymilk [3]: not detected
- Decomposition efficiency of daidzin family in defatted soybean [4]: not detected
- Decomposition efficiency of daidzin family in soymilk [4]: not detected
- Decomposition efficiency of daidzin family in defatted soybean [5]: not detected
- Decomposition efficiency of daidzin family in soymilk [5]: not detected
